Assay results published in publication PMC7920280, “The Multi-Targeting Ligand ST-2223 with Histamine H3 Receptor and Dopamine D2/D3 Receptor Antagonist Properties Mitigates Autism-Like Repetitive Behaviors and Brain Oxidative Stress in Mice” (International Journal of Molecular Sciences, 2021).

How the values were obtained:
Format in all cases: in vivo
[1] = system: BTBR and B6 mice; assay: Spontaneous alternation behavior (SAB), Y maze; conditions: i.p., ST-2223 2.5, 5 and 10 mg/kg, MEM 5 mg/kg, ARP 1 mg/kg
Procedure: (§1) The drugs tested included ST-2223 [N-(4-(4-(2-methoxyphenyl)piperazin-1-yl)butyl)-6-(3-(piperidin-1-yl)propoxy)-2-naphthamide] that was designed and synthesized in the Institute of Pharmaceutical and Medicinal Chemistry, Heinrich Heine University Düsseldorf, Germany, and in accordance with previously described methodologies (Supplementary Materials). Aripiprazole (ARP) (1 mg/kg, i.p.) and memantine (MEM, 5 mg/kg, i.p.), as reference drugs, were purchased from Sigma-Aldrich (St. Louis, MO, USA). The CNS-penetrant H3R agonist (R)-α-methylhistamine (RAM, 10 mg/kg, i.p.) was purchased from Sigma-Aldrich, St. Louis, MO, USA. T. Protease and the phosphatase inhibitor cocktail were procured from Thermo Scientific, USA. The assay kit for reduced glutathione (GSH) was obtained from Sigma-Aldrich (St. Louis, MO, USA). The lipid peroxidation assay kit for estimation of malondialdehyde (MDA) was purchased from North West Life Science (Vancouver, WA, USA). The assay kits for superoxide dismutase (SOD) and catalase (CAT) were purchased from Cayman Chemical (Ann Arbor, MI, USA). The drugs were prepared daily using 1% dimethyl sulfoxide (DMSO) in 0.9% saline, for intraperitoneal (i.p.) administration at a volume of 10 mL/kg of body weight. Vehicle treatment consisted of 1% DMSO in 0.9% normal saline. All drugs were i.p. administered 30 min before the behavioral test. The doses of these drugs were chosen based on previous reports. Neurobehavioral assessment was performed blindly with respect to experimental group and drug administration.
The SAB test is based on the exploratory strategy of rodents to explore a new environment. In examining repetitive behaviors, the Y maze test took advantage of the rodents’ natural tendency to spontaneously alternate or choose a different arm of the maze instead of the one they visited on their previous entry (i.e., least recently visited arm). A decrease in the percentage alternation can also be attributed to same arm repeated visits. Spontaneous alternation behavior was measured on a Y maze apparatus, as previously described, with slight modifications. The Y maze composed of three arms (30 cm × 6 cm × 15 cm), where the arms were labeled with letters: A, B, or C. The test mouse was placed in the center of the maze and was allowed to freely explore the maze for 8 min. The number of entries into each arm and the total number of entries were recorded by the observer. A spontaneous alternation was defined as successive entry into three arms on an overlapping triplet set. Percentage spontaneous alternation was calculated as the number of spontaneous alternations (actual alternations) over the total number of entries (possible alternations). Two arm entries were subtracted from the denominator because an alternation required at least 3 entries. The apparatus was cleaned with 70% alcohol solution after each mouse was tested. (1) Percentage spontaneous alternations=Total alternations/(Total arm entries − 2) ×100

[2] = system: BTBR and B6 mice; assay: Open field test (OFT): locomotor activity and anxiety levels; conditions: i.p.; for total distance travelled (OFT) / time spent in the periphery (OFT), effect of treatment: B6 and BTBR mice; for total distance travelled (OFT) / time spent in the central arena (OFT) vs vehicle-treated B6 mice / time spent in center (OFT) vs vehicle-treated BTBR mice: ST-2223 2.5, 5 and 10 mg/kg, MEM 5 mg/kg, ARP 1 mg/kg; for time spent in the periphery (OFT), effect of treatment: ST-2223 2.5, 5 or 10 mg/kg, MEM, ARP
Procedure: as §1
The open field test (OFT) systematically evaluates exploration behaviors executed in a novel open field (considered as a novel environment), as an independent control for the effects of the drugs on physical activity that could confound the interpretation of the results from the self-grooming, anxiety and spontaneous alternation. Mice were allowed to freely explore an open-field arena (45 × 45 × 30 cm), to assess general locomotor activity, and anxiety-related behaviors. The center arena was defined as the central 23 × 23 cm area. Mice were given 5 min to habituate in the center area of the arena before the recording started for the actual behavioral assessments. Recording lasted for 10 min using charge-coupled device (CCD) camera-assisted motion tracking apparatus and software (EthoVision 3.1, Noldus Information Technology, The Netherlands), and the total distance moved in the whole arena, time spent in the center and periphery were recorded. Test chambers were cleaned with 70% ethanol after each trial and were allowed to dry until ethanol evaporation and odor dissipation had occurred. When interpreting the results observed in this assessment, less time spent in the center was considered as an indicator for high levels of anxiety-like behaviors and total distance travelled signified the overall locomotor activity of tested animals.

[3] = system: glutathione (GSH); assay: Quantification of glutathione (GSH) in brain parts of treated BTBR mice; conditions: i.p., ST-2223 5 mg/kg, RAM 10 mg/kg, ARP 1 mg/kg, MEM 5 mg/kg, mean ± SEM; for GSH, Striatum: n = 3-6, BTBR vehicle 583 ± 68.8; for GSH, Cerebellum: n = 3-6, BTBR vehicle 827 ± 93.3; for GSH, Prefrontal Cortex: n = 3-6, BTBR vehicle 835 ± 97.4; for GSH, Hippocampus: n = 3-6, BTBR vehicle 1096 ± 16.7
Procedure: At the end of the behavioral assessments, the animals were sacrificed following previously published protocols. Animals were anesthetized with pentobarbital (40 mg/kg, body weight, i.p.), sacrificed, and perfused via intracardial infusion to wash out the blood, using 1× PBS (0.01 M phosphate buffer, 0.0027 M potassium chloride and 0.137 M sodium chloride) at pH 7.4. […] The brains were then quickly removed and placed on an ice plate. The cerebellum, hippocampus, prefrontal and striatum were excised from the brain and snap-frozen in liquid nitrogen for further use in biochemical assessments. On the day of the biochemical tests, the tissues were homogenized using radioimmunoprecipitation assay (RIPA) buffer (50 mM Tris HCl, pH 7.4, 140 mM NaCl, 1 mM EDTA, 0.5% Triton X-100 and 0.5% sodium deoxycholate) supplemented with protease and phosphatase inhibitors. Then, the homogenates were centrifuged at 14,000 rpm for 30 min (4 °C), and the supernatant was used for evaluation of lipid peroxidation, glutathione, and antioxidant enzymes using spectrophotometric measurements and enzyme-linked immunosorbent assays (ELISA)..
Levels of GSH in tissue homogenates were carried out according to the manufacturer’s instructions of the commercially available Sigma’s glutathione assay kit (Sigma-Aldrich Chemie GmbH, Steinheim), and as previously described. In brief, samples were first deproteinized with 5% 5-sulfosalicylic acid solution, centrifuged to remove the precipitated protein, and then the supernatant was used to estimate GSH. Ten microliter samples or standards were incubated with 150 μL of working mixture (assay buffer + 5,5′-dithiobis (2-nitrobenzoic acid) + GSH reductase) in 96-well plates for 5 min. Diluted NADPH solution (50 µL) was added into each well and mixed thoroughly. Absorbance was measured at 412 nm with the kinetics for 5 min by using the microplate reader. Results are expressed as µM GSH/mg protein.

Row | SMILES | percentage of spontaneous alternation vs vehicle-treated B6 mice [1] | percentage of spontaneous alternation vs vehicle-treated BTBR mice [1] | total distance travelled (OFT) [2] | time spent in the periphery (OFT), effect of treatment [2] | time spent in the central arena (OFT) vs vehicle-treated B6 mice [2] | time spent in center (OFT) vs vehicle-treated BTBR mice [2] | GSH, Striatum [3] [µM GSH/mg protein] | GSH, Cerebellum [3] [µM GSH/mg protein] | GSH, Prefrontal Cortex [3] [µM GSH/mg protein] | GSH, Hippocampus [3] [µM GSH/mg protein]
1 | CC12CC3CC(C)(C1)CC(N)(C3)C2 [MEM, memantine] | did not alter | significantly increased | did not show any alteration | no significant effect | did not alter | failed to significantly mitigate | 915.5 ± 97.3 | 877 ± 55.7 | 719.3 ± 50.0 | –
2 | COc1ccccc1N1CCN(CCCCNC(=O)c2ccc3cc(OCCCN4CCCCC4)ccc3c2)CC1 [ST-2223, N-(4-(4-(2-methoxyphenyl)piperazin-1-yl)butyl)-6-(3-(piperidin-1-yl)propoxy)-2-naphthamide] | did not alter | significantly increased | did not show any alteration | no significant effect | did not alter | significantly increased | 1007 ± 93.1 | 1108 ± 41.1 | 1212 ± 302.6 | 916 ± 4.2
3 | O=C1CCc2ccc(OCCCCN3CCN(c4cccc(Cl)c4Cl)CC3)cc2N1 [ARP, aripiprazole] | did not alter | failed to significantly mitigate | did not show any alteration | no significant effect | did not alter | significantly increased | 1139 ± 74.6 | 1030 ± 36.2 | 935 ± 98.0 | 611.5 ± 62.6
